The values that follow come from patent US10730863B2, “Bridged bicyclic compounds as farnesoid X receptor modulators” (BRISTOL-MYERS SQUIBB COMPANY, priority 2017, dated 2020).

The target in this assay is FXR (Homo sapiens (Human), UniProt Q96RI1). Nature of the assay: FXR EC50 (FXR agonist activity reported with each example). It counts as cell-based.
Sequence of FXR (Q96RI1 262-486): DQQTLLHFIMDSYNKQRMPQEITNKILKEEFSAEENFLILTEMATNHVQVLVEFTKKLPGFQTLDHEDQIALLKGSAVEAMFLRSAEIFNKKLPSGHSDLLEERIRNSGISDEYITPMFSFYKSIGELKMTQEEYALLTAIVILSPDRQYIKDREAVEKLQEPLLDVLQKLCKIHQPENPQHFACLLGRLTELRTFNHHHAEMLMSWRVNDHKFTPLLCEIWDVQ

For orientation: EC50 means the concentration at which the effect is half-maximal. `NC(=O)c1cc(C(F)(F)F)cc(C23CCC(COCc4c(-c5c(Cl)cncc5Cl)noc4C4CC4)(CC2)CO3)c1` [Example 489, 3-(4-(((5-cyclopropyl-3-(3,5-dichloropyridin-4-yl)isoxazol-4-yl)methoxy)methyl)-2-oxabicyclo[2.2.2]octan-1-yl)-5-(trifluoromethyl)benzamide] displayed a concentration for a half-maximal effect (EC50) of 1.4 µM.
Next, `O=C(O)Cc1noc(C23CCC(OCc4c(-c5c(Cl)cccc5Cl)noc4C4CC4)(CC2)CC3)n1` [Example 72, 2-(5-(4-((5-cyclopropyl-3-(2,6-dichlorophenyl)isoxazol-4-yl)methoxy)bicyclo[2.2.2]octan-1-yl)-1,2,4-oxadiazol-3-yl)acetic acid]: 3.1 µM; `CCOc1cc(C(=O)O)nc2ccc(OCC34CCC(OCc5c(-c6c(Cl)cncc6Cl)noc5C5CC5)(CC3)CC4)cc12` [Example 345]: 0.014 µM.
Next, `O=C(O)c1ccnc(OCC23CCC(OCc4c(-c5c(Cl)cccc5Cl)noc4C4CC4)(CC2)CC3)n1` [Example 108, 2-((4-((5-cyclopropyl-3-(2,6-dichlorophenyl)isoxazol-4-yl)methoxy)bicyclo[2.2.2]octan-1-yl)methoxy)pyrimidine-4-carboxylic acid]: 0.54 µM.
For `O=C(O)c1ccc(F)c(OCC23CCC(OCc4c(-c5c(Cl)cccc5Cl)noc4C4CC4)(CC2)CC3)c1` [Example 92, 3-((4-((5-cyclopropyl-3-(2,6-dichlorophenyl)isoxazol-4-yl)methoxy)bicyclo[2.2.2]octan-1-yl)methoxy)-4-fluorobenzoic acid] the value was 0.023 µM; for `O=C(O)c1cccc(-c2noc(C34CCC(COCc5c(-c6ccccc6OC(F)(F)F)noc5C5CC5)(CC3)CO4)n2)c1` [Example 213], 1.2 µM; for `COc1ccc(-c2nc(C34CCC(OCc5c(-c6c(Cl)cncc6Cl)noc5C5CC5)(CC3)CC4)no2)cc1C(=O)O` [Example 234, 5-(3-(4-((5-cyclopropyl-3-(3,5-dichloropyridin-4-yl)isoxazol-4-yl)methoxy)bicyclo[2.2.2]octan-1-yl)-1,2,4-oxadiazol-5-yl)-2-methoxybenzoic acid], 0.19 µM.
Take `COc1ccc(-c2noc(C34CCC(/C=C/c5c(-c6c(Cl)cncc6Cl)noc5C5CC5)(CC3)CC4)n2)cc1C(=O)O` [Example 437, (E)-5-(5-(4-(2-(5-cyclopropyl-3-(3,5-dichloropyridin-4-yl)isoxazol-4-yl)vinyl)bicyclo[2.2.2]octan-1-yl)-1,2,4-oxadiazol-3-yl)-2-methoxybenzoic acid]: the 50% effective concentration (EC50) is 0.023 µM.
For `COc1cncc(Cl)c1-c1noc(C2CC2)c1COC12CCC(COc3cc(C)c(C(=O)O)cn3)(CC1)CC2` [Example 119, 6-((4-((3-(3-chloro-5-methoxypyridin-4-yl)-5-cyclopropylisoxazol-4-yl)methoxy)bicyclo[2.2.2]octan-1-yl)methoxy)-4-methylnicotinic acid] the value was 0.12 µM.
For `COc1cc(OCC23CCC(OCc4c(-c5c(Cl)cncc5Cl)noc4C4CC4)(CC2)CC3)ncc1C(=O)O` [Example 301, 6-((4-((5-cyclopropyl-3-(3,5-dichloropyridin-4-yl)isoxazol-4-yl)methoxy)bicyclo[2.2.2]octan-1-yl)methoxy)-4-methoxynicotinic acid] the value was 0.042 µM.
For `O=C(O)c1ccc2nc(C(O)C34CCC(OCc5c(-c6c(Cl)cccc6Cl)noc5C5CC5)(CC3)CC4)sc2c1` (stereo not shown) [Example 124, 2-((4-((5-cyclopropyl-3-(2,6-dichlorophenyl)isoxazol-4-yl)methoxy)bicyclo[2.2.2]octan-1-yl)(hydroxy)methyl)benzo[d]thiazole-6-carboxylic acid] the value was 0.49 µM; for `O=C(O)c1cc(OC(CO)CCl)c2cc(OCC34CCC(OCc5c(-c6c(Cl)cncc6Cl)noc5C5CC5)(CC3)CC4)ccc2n1` (stereo not shown) [Example 354, 4-((1-chloro-3-hydroxypropan-2-yl)oxy)-6-((4-((5-cyclopropyl-3-(3,5-dichloropyridin-4-yl)isoxazol-4-yl)methoxy)bicyclo[2.2.2]octan-1-yl)methoxy)quinoline-2-carboxylic acid], 0.2 µM.
In turn, `O=C(O)c1ccc(C#CC23CCC(OCc4c(-c5c(Cl)cncc5Cl)noc4C4CC4)(CC2)CC3)c2ncccc12` [Example 412] showed an EC50 of 0.01 µM.
For `O=C(O)c1cc(C(F)(F)F)c2cc(OCC34CCC(OCc5c(-c6ccccc6C(F)(F)F)noc5C5CC5)(CC3)CC4)ccc2n1` [Example 288] the value was 0.25 µM.
Next, `O=C(O)c1cc(-c2noc(C34CCC(/C=C/c5c(-c6c(Cl)cncc6Cl)noc5C5CC5)(CC3)CC4)n2)ccc1OC(F)F` [Example 446, (E)-5-(5-(4-(2-(5-cyclopropyl-3-(3,5-dichloropyridin-4-yl)isoxazol-4-yl)vinyl)bicyclo[2.2.2]octan-1-yl)-1,2,4-oxadiazol-3-yl)-2-(difluoromethoxy)benzoic acid]: 0.35 µM; `O=C(O)c1ccc(-c2noc(C34CCC(OCc5c(-c6ccccc6OC(F)(F)F)noc5C5CC5)(CC3)CO4)n2)cc1` [Example 212]: 1 µM.
Next, `O=C(O)c1ccc2c(C(O)C34CCC(OCc5c(-c6c(Cl)cccc6Cl)noc5C5CC5)(CC3)CC4)ccnc2c1` (stereo not shown) [Example 128, 4-((4-((5-cyclopropyl-3-(2,6-dichlorophenyl)isoxazol-4-yl)methoxy)bicyclo[2.2.2]octan-1-yl)(hydroxy)methyl)quinoline-7-carboxylic acid]: 0.7 µM; `Cn1nc(C(=O)O)c2ccc(C34CCC(OCc5c(-c6c(Cl)cncc6Cl)noc5C5CC5)(CC3)CC4)nc21` [Example 365]: 0.049 µM; `COC(=O)c1ccc(-c2noc(C34CCC(C=Cc5c(-c6c(Cl)cccc6Cl)noc5C5CC5)(CC3)CC4)n2)cc1` [Example 161]: 0.95 µM.
Molecule `O=C(O)c1cc(OC(F)F)c2cc(OCC34CCC(/C=C/c5c(-c6c(Cl)cncc6Cl)noc5C5CC5)(CC3)CC4)ccc2n1` [Example 451, (E)-6-((4-(2-(5-cyclopropyl-3-(3,5-dichloropyridin-4-yl)isoxazol-4-yl)vinyl)bicyclo[2.2.2]octan-1-yl)methoxy)-4-(difluoromethoxy)quinoline-2-carboxylic acid] yielded an EC50 of 0.035 µM.
For `O=C(O)c1cccc(-c2nnc(C34CCC(OCc5c(-c6ccccc6OC(F)(F)F)noc5C5CC5)(CC3)CC4)s2)c1` [Example 19, 3-(5-(4-((5-cyclopropyl-3-(2-(trifluoromethoxy)phenyl)isoxazol-4-yl)methoxy)bicyclo[2.2.2]octan-1-yl)-1,3,4-thiadiazol-2-yl)benzoic acid] the value was 1.7 µM; for `Cn1cc(C(=O)O)c2ccc(OCC34CCC(OCc5c(-c6ccccc6OC(F)(F)F)noc5C5CC5)(CC3)CC4)cc21` [Example 84], 0.32 µM.
The molecule `Cc1cc(C(=O)O)nc2c(F)cc(OCC34CCC(OCc5c(-c6c(Cl)cncc6Cl)noc5C5CC5)(CC3)CC4)cc12` [Example 307, 6-((4-((5-cyclopropyl-3-(3,5-dichloropyridin-4-yl)isoxazol-4-yl)methoxy)bicyclo[2.2.2]octan-1-yl)methoxy)-8-fluoro-4-methylquinoline-2-carboxylic acid] showed an EC50 of 0.02 µM.
For `O=C(O)c1cccc(CNC(=O)C23CCC(OCc4c(-c5c(Cl)cccc5Cl)noc4C4CC4)(CC2)CC3)c1` [Example 143, 3-((4-((5-cyclopropyl-3-(2,6-dichlorophenyl)isoxazol-4-yl)methoxy)bicyclo[2.2.2]octane-1-carboxamido)methyl)benzoic acid] the value was 1.3 µM.
For the molecule `O=C(O)c1cc(OC(F)F)c2cc(OCC34CCC(/C=C/c5c(-c6c(Cl)cncc6Cl)noc5C5CC5)(CC3)OC4)ccc2n1` [Example 472, (E)-6-((1-(2-(5-cyclopropyl-3-(3,5-dichloropyridin-4-yl)isoxazol-4-yl)vinyl)-2-oxabicyclo[2.2.2]octan-4-yl)methoxy)-4-(difluoromethoxy)quinoline-2-carboxylic acid], the half-maximal effective concentration (EC50) turned out to be 0.29 µM.
For `Cn1cc(C(=O)O)c2ccc(OCC34CCC(OCc5c(-c6c(Cl)cccc6Cl)noc5C5CC5)(CC3)CC4)cc21` [Example 90, 6-((4-((5-cyclopropyl-3-(2,6-dichlorophenyl)isoxazol-4-yl)methoxy)bicyclo[2.2.2]octan-1-yl)methoxy)-1-methyl-1H-indole-3-carboxylic acid] the value was 0.011 µM.
Next, `O=C(O)c1ccc2[nH]c(C34CCC(OCc5c(-c6c(Cl)cccc6Cl)noc5C5CC5)(CC3)CC4)nc2c1` [Example 17, 2-(4-((5-cyclopropyl-3-(2,6-dichlorophenyl)isoxazol-4-yl)methoxy)bicyclo[2.2.2]octan-1-yl)-1H-benzo[d]imidazole-5-carboxylic acid]: 2.7 µM.
Next, `O=C(O)c1cccc(NC(=O)C23CCC(COCc4c(-c5c(Cl)cccc5Cl)noc4C4CC4)(CC2)CC3)c1Cl` [Example 173]: 1.4 µM; `O=C(O)c1ccc(C23CCC(/C=C/c4c(-c5c(Cl)cccc5Cl)noc4C4CC4)(CC2)CO3)cc1` [Example 194, (E)-4-(4-(2-(5-cyclopropyl-3-(2,6-dichlorophenyl)isoxazol-4-yl)vinyl)-2-oxabicyclo[2.2.2]octan-1-yl)benzoic acid]: 0.034 µM; `O=C(O)c1cc(C(F)(F)F)c2cc(OCC34CCC(/C=C/c5c(-c6c(Cl)cncc6Cl)noc5C5CC5)(CC3)CC4)ccc2n1` [Example 452, (E)-6-((4-(2-(5-cyclopropyl-3-(3,5-dichloropyridin-4-yl)isoxazol-4-yl)vinyl)bicyclo[2.2.2]octan-1-yl)methoxy)-4-(trifluoromethyl)quinoline-2-carboxylic acid]: 0.014 µM.
In the case of `CCOc1cc(C(=O)O)nc2cc(F)c(OCC34CCC(OCc5c(-c6c(Cl)cncc6Cl)noc5C5CC5)(CC3)CC4)cc12` [Example 313, 6-((4-((5-cyclopropyl-3-(3,5-dichloropyridin-4-yl)isoxazol-4-yl)methoxy)bicyclo[2.2.2]octan-1-yl)methoxy)-4-ethoxy-7-fluoroquinoline-2-carboxylic acid], the half-maximal effective concentration (EC50) was found to be 0.048 µM.
